7 molecules from patent US10414756B2, “2-(2,4,5-substituted aniline) pyrimidine derivative, pharmaceutical composition and use thereof” (Nanjing Diansu Biological Technology Co., Ltd., priority 2014, dated 2019) can be followed below.

Counter-ions that a name gives are not always drawn.

Series [1] in a line: Test 4: stability of compounds in human liver microsomes. The note with it: for Remaining Percentage (%) 0 h / Remaining Percentage (%) 8 h / Remaining Percentage (%) 16 h / Remaining Percentage (%) 24 h / Remaining Percentage (%) 32 h / Remaining Percentage (%) 48 h: 0.5 mg/mL liver microsomal protein, 1 mM NADPH, 37° C., N=1; for Half-time period: human liver microsomes. It is filed as in vitro ADME. As for the experimental part:
Test 4: Evaluation of Stability of Compounds in Human Liver Microsomes
Assay system: the metabolic stability of the compounds in the present invention were determined by employing a mixture of male and female liver microsomes (Jiangyin Qi Biotechnology Co., Ltd.) and 1 mM NADPH. Samples were analyzed by a mass spectrometer. HRMS was used to determine the peak area response ratio (corresponding to the peak area of the compound to be tested or control compound being divided by the peak area of the internal standard) without running the standard curve. In order to detect all possible metabolites, HRMS scan were performed within an appropriate m/z range.
Determination condition: the assay was performed with one time incubation (N=1). The compounds to be tested were incubated at 37° C. in a PBS buffer containing 0.5 mg/mL liver microsomal protein.
Determination quality control: compare the testosterone of control compound in parallel to determine the enzyme […] of (liver) microsomes. After the last time point, […]
Aqueous phase (A): 90% water, 10% buffer;
Organic phase (B): 90% acetonitrile, 10% buffer;
Autosampler: injection volume 10 μL
In general terms: Microsomes from liver hold many membrane-bound enzymes, among them those of drug oxidation.

The subject of series [2] is NCI-H1975. Nature of the series: Test 5: effect in nude mice implanted with NCI-H1975. The format is in vivo. As for the experimental part:
Test 5: Effect Assess in Nude Mice Implanted with NCI-H1975
To nude mice implanted with NCI-H1975, was administered 3.6 μgig (compound/nude mice weight) once a day in one group, and 7.2 μgig once a day in another group, and the tumor size was observed after continuous administration for 10 days.

The nature of series [3]: Effect Embodiment 2: rat pharmacokinetics after intragastric administration. The format is in vivo, SD rats. The conditions noted are these: rats, 25 mg/kg intragastric, n=6, compared with AZD9291. The text has this: 2.1. Grouping of Experimental Animals:
24 SD rats were half male and half female, randomly divided into 4 groups, 6 rats in each group, half male and half female
1-3 male, NO. […] 7-9 male, NO. 10-12 female
2.2. Experimental Reagents and Administration Modes
Intragastric Administration:
2. grouping and weighing rats;
4. the blood samples were centrifuged, supernatant was extracted, treated, and analyzed.

The mark [4] stands for this setting: Dose 3.6 μg/g once a day for 10 days.
Where [5] appears, read: Dose 7.2 μg/g once a day for 10 days.

As for `C=CC(=O)Nc1cc(Nc2nccc(-c3cn(C)c4ccccc34)n2)c(OC)cc1N(C)CCN(C)C.CS(=O)(=O)O` [AZD9291, reference compound], in series [1], the “Remaining Percentage (%) 0 h” value came out at 100%, the “Remaining Percentage (%) 8 h” value is 82%, the “Remaining Percentage (%) 16 h” value is 61% and the “Remaining Percentage (%) 24 h” value stood at 48%. Also, in series [1], the “Remaining Percentage (%) 32 h” value is given as 34%, the “Remaining Percentage (%) 48 h” value stood at 14% and the Half-time period was 24 h. Further, the “tumor size 11th d” value in series [2] (setting [4]) was determined as 13 mm. Besides, in series [2] (Dose 3.6 μg/g once a day), the “tumor size 0 d” value was determined as 13 mm. In series [2] (setting [5]), the “tumor size 11th d” value is reported as 8 mm. Besides, in series [2] (Dose 7.2 μg/g once a day), the “tumor size 0 d” value is reported as 12 mm. Further, the “inhibitory effect on tumor growth” value in series [2] (low dose (3.6 μg/g)) is “very low inhibitory effect on tumor growth”.

Take `[2H]C([2H])([2H])N(C)CCN(C)c1cc(OC)c(Nc2nccc(-c3cn(C)c4ccccc34)n2)cc1NC(=O)C=C` [Embodiment 1B, N-(2-{2-[methyl(D3-methyl)amino]ethyl-methylamino}-4-methoxy-5-{[4-(1-methylindol-3-yl)pyrimidin-2-yl]amino}phenyl)-2-acrylamide mesylate]: in series [1], the “Remaining Percentage (%) 0 h” value was 100%, the “Remaining Percentage (%) 8 h” value was found to be 93%, the “Remaining Percentage (%) 16 h” value is 86% and the “Remaining Percentage (%) 24 h” value is recorded as 77%. In series [1], the “Remaining Percentage (%) 32 h” value is 70%, the “Remaining Percentage (%) 48 h” value is on record as 67% and the Half-time period is >48 h. In series [2] (setting [4]), the “tumor size 11th d” value turned out to be 6 mm. Moreover, the “tumor size 0 d” value in series [2] (Dose 3.6 μg/g once a day) is 12 mm. Besides, the “tumor size 11th d” value in series [2] (setting [5]) was 5 mm. Further, in series [2] (Dose 7.2 μg/g once a day), the “tumor size 0 d” value stood at 13 mm.

For `[2H]C([2H])([2H])N(CCN(C)c1cc(OC)c(Nc2nccc(-c3cn(C)c4ccccc34)n2)cc1NC(=O)C=C)C([2H])([2H])[2H]` [Embodiment 2B, N-(2-{2-di(D3-methyl)aminoethyl-methylamino}-4-methoxy-5-{[4-(1-methylindol-3-yl)pyrimidin-2-yl]amino}phenyl)-2-acrylamide mesylate], in series [1], the “Remaining Percentage (%) 0 h” value is 100%, the “Remaining Percentage (%) 8 h” value stood at 97%, the “Remaining Percentage (%) 16 h” value was 90% and the “Remaining Percentage (%) 24 h” value is 82%. Further, in series [1], the “Remaining Percentage (%) 32 h” value came to 75%, the “Remaining Percentage (%) 48 h” value was 81% and the Half-time period is >48 h. In series [2] (setting [4]), the “tumor size 11th d” value was 5 mm. The “tumor size 0 d” value in series [2] (Dose 3.6 μg/g once a day) was found to be 12 mm. Moreover, the “tumor size 11th d” value in series [2] (setting [5]) is reported as 4 mm. The “tumor size 0 d” value in series [2] (Dose 7.2 μg/g once a day) is 12 mm.

For `[2H]C([2H])([2H])n1cc(-c2ccnc(Nc3cc(NC(=O)C=C)c(N(C)CCN(C)C)cc3OC)n2)c2ccccc21` [Embodiment 3B, N-(2-{2-dimethylaminoethyl-methylamino}-4-methoxy-5-{[4-(1-D3-methyl)indol-3-yl)pyrimidin-2-yl]amino}phenyl)-2-acrylamide mesylate], in series [1], the “Remaining Percentage (%) 0 h” value came to 100%, the “Remaining Percentage (%) 8 h” value was found to be 90%, the “Remaining Percentage (%) 16 h” value worked out at 82% and the “Remaining Percentage (%) 24 h” value amounted to 73%. For the same molecule, in series [1], the “Remaining Percentage (%) 32 h” value is 64%, the “Remaining Percentage (%) 48 h” value is 55% and the Half-time period was >48 h. In addition, the “tumor size 11th d” value in series [2] (setting [4]) stood at 9 mm. Further, the “tumor size 0 d” value in series [2] (Dose 3.6 μg/g once a day) was 14 mm. Besides, the “tumor size 11th d” value in series [2] (setting [5]) came to 7 mm. Moreover, the “tumor size 0 d” value in series [2] (Dose 7.2 μg/g once a day) is 13 mm. The “pharmacokinetics (mean drug concentration-time curve, FIG. 2)” value in series [3] is given as “better pharmacokinetics”.

With `[2H]C([2H])([2H])Oc1cc(N(C)CCN(C)C)c(NC(=O)C=C)cc1Nc1nccc(-c2cn(C)c3ccccc23)n1` [Embodiment 4B, N-(2-{2-dimethylaminoethyl-methylamino}-4-(D3-methoxy)-5-{[4-(1-methylindol-3-yl)pyrimidin-2-yl]amino}phenyl)-2-acrylamide mesylate], in series [1], the “Remaining Percentage (%) 0 h” value is listed as 100%, the “Remaining Percentage (%) 8 h” value is listed as 89%, the “Remaining Percentage (%) 16 h” value was found to be 81% and the “Remaining Percentage (%) 24 h” value worked out at 72%. Further, in series [1], the “Remaining Percentage (%) 32 h” value came out at 63%, the “Remaining Percentage (%) 48 h” value was 51% and the Half-time period is given as >48 h. In series [2] (setting [4]), the “tumor size 11th d” value was 8 mm. In addition, the “tumor size 0 d” value in series [2] (Dose 3.6 μg/g once a day) is reported as 13 mm. The “tumor size 11th d” value in series [2] (setting [5]) was 6 mm. In series [2] (Dose 7.2 μg/g once a day), the “tumor size 0 d” value worked out at 11 mm.

Take `[2H]C([2H])([2H])N(CCN(C)C)c1cc(OC)c(Nc2nccc(-c3cn(C)c4ccccc34)n2)cc1NC(=O)C=C` [Embodiment 5B, N-(2-{2-dimethylaminoethyl-(D3-methyl)amino}-4-methoxy-5-{[4-(1-methylindol-3-yl)pyrimidin-2-yl]amino}phenyl)-2-acrylamide mesylate]: in series [1], the “Remaining Percentage (%) 0 h” value is listed as 100%, the “Remaining Percentage (%) 8 h” value turned out to be 91%, the “Remaining Percentage (%) 16 h” value came out at 84% and the “Remaining Percentage (%) 24 h” value was determined as 75%. In series [1], the “Remaining Percentage (%) 32 h” value turned out to be 69%, the “Remaining Percentage (%) 48 h” value is listed as 66% and the Half-time period is reported as >48 h. The “tumor size 11th d” value in series [2] (setting [4]) is given as 10 mm. The “tumor size 0 d” value in series [2] (Dose 3.6 μg/g once a day) worked out at 11 mm. For the same molecule, the “tumor size 11th d” value in series [2] (setting [5]) is given as 8 mm. Further, the “tumor size 0 d” value in series [2] (Dose 7.2 μg/g once a day) was determined as 14 mm.

In the case of `[2H]C([2H])([2H])N(CCN(C)c1cc(OC)c(Nc2nccc(-c3cn(C([2H])([2H])[2H])c4ccccc34)n2)cc1NC(=O)C=C)C([2H])([2H])[2H]` [Embodiment 6B, N-(2-{2-di(D3-methyl)aminoethyl-methylamino}-4-methoxy-5-{[4-(1-(D3-methyl)indol-3-yl)pyrimidin-2-yl]amino}phenyl)-2-acrylamide mesylate], in series [1], the “Remaining Percentage (%) 0 h” value was determined as 100%, the “Remaining Percentage (%) 8 h” value was 92%, the “Remaining Percentage (%) 16 h” value stood at 80% and the “Remaining Percentage (%) 24 h” value was 76%. For the same molecule, in series [1], the “Remaining Percentage (%) 32 h” value was 65%, the “Remaining Percentage (%) 48 h” value stood at 58% and the Half-time period is >48 h.
